Reference: publication PMC3889641 (Inflammatory bowel diseases, 2013)
Read-outs that look alike come from different tables or passages of the source.

Columns and labels:
[1] = tested on: Smad3 / phospho-Smad3(Ser423/425); assay: Smad3 phosphorylation; format: in vivo, rat (Sprague-Dawley); conditions: EtOH treated rats, cilengitide 18 mg/kg/d i.p., 42 d
[2] = tested on: αVβ3 integrin; conditions: RGD mimetic peptides, like cilengitide, ref [43], cited from earlier work
[3] = tested on: rat bile duct ligation model of cirrhosis; conditions: ref [42]; cited from earlier work
[4] = tested on: phospho-Smad3(Ser423/425); assay: pSmad3; set-up: species or system human; rat; conditions: legend of Fig. 2C-F; rats 18 mg/kg/d i.p.
[5] = tested on: Th1, Th2, Th17 and IL-1 related cytokines; format: in vivo, rat (Sprague-Dawley)
[6] = tested on: αVβ5; conditions: read-out: IC50 for αVβ5; stated in Discussion; no reference or method printed; cited from earlier work
[7] = tested on: CD11b; assay: CD11b immunofluorescence; format: in vivo, rat (Sprague-Dawley); conditions: 42 d
[8] = tested on: LAP-β1 and αVβ3 integrin association in rat colon muscle; conditions: 18 mg/kg/d i.p., 42 d
[9] = tested on: collagen; format: in vivo, rat (Sprague-Dawley); conditions: 18 mg/kg/d i.p., 42 d
[10] = tested on: cultured hepatic stellate cells; conditions: ref [42]; cited from earlier work
[11] = tested on: MPO; format: in vivo, rat (Sprague-Dawley); conditions: TNBS/cilengitide rats, 42 d; TNBS/PBS 6.06 ± 0.30
[12] = TNBS/cilengitide rats, 42 d, vs controls

cilengitide
Smad3(Ser423/425) phosphorylation [1]: did not affect phosphorylation | αVβ3 integrin function at high concentrations ([2]; high concentrations): inhibition of αVβ3 integrin function at the high concentrations | αVβ3 integrin function at lower concentrations ([2]; lower concentrations): activation of αVβ3 integrin at lower concentrations | fibrosis in vivo [3]: fibrosis worsened | pSmad3(Ser423/425) levels (in words) [4]: inhibited by cilengitide | IFN-γ level [5, 12]: significantly lower than controls | IL-1α level [5, 12]: significantly lower than controls | IL-1β level [5, 12]: significantly lower than controls | IL-6 level [5, 12]: significantly lower than controls | IL-10 level [5, 12]: significantly lower than controls | TNF-α level [5, 12]: significantly lower than controls | levels of many cytokines ([5]; after 42 d of treatment with cilengitide): not altered | GM-CSF level ([5]; cilengitide, chronic TNBS model (Discussion)): increase the levels of GM-CSF | IC50 [6]: 37 nM | CD11b immunofluorescence ([7]; EtOH/cilengitide rats, EtOH/PBS 450 ± 23): 585 ± 30 pixels/hpf | CD11b immunofluorescence ([7]; TNBS/cilengitide rats, TNBS/PBS 550 ± 28): 500 ± 25 pixels/hpf | association of LAP-β1 with integrin β3 ([8]; EtOH/cilengitide rats, EtOH/PBS 17.5 ± 1.0): 20.2 ± 1.2 pixels/hpf | association of LAP-β1 and αVβ3 ([8]; TNBS/cilengitide rats, TNBS/PBS 139 ± 8.0): 22.9 ± 1.3 pixels/hpf | collagen protein (Sircol assay) ([9]; EtOH/Cilengitide rats, EtOH/PBS 2.5 ± 0.13): 4.5 ± 0.23 ng/mL | collagen protein (Sircol assay) ([9]; TNBS/cilengitide rats, TNBS/PBS 38 ± 1.9): 9.5 ± 0.48 ng/mL | anti-fibrotic effect in vitro [10]: anti-fibrotic | MPO activity [11]: 4.49 ± 0.23 ng/µg protein
